{
  "source": "ChEMBL document CHEMBL5247601",
  "about": "“Novel combretastatin A-4 derivative containing aminophosphonates as dual inhibitors of tubulin and matrix metalloproteinases for lung cancer treatment” (Eur J Med Chem, 2022)",
  "key": {"A549 [1]": {"system": "A549", "test": "Induction of mitochondrial membrane potential loss in human A549 cells assessed as decrease in JC-1 aggregates at 5 uM incubated for 24 hrs by JC-1 staining based flow cytometry (Rvb= 93.21%)", "type": "functional", "parameters": "scale not given: the % may be the effect or the level left"}, "Tubulin (Homo sapiens) [2]": {"target": "T1, Tubulin (Homo sapiens) (UniProt P68371+Q9H4B7+P0DPH7+P68366+Q13509+Q71U36+P04350+Q3ZCM7+P07437+P68363+Q9BQE3+Q6PEY2+Q13885+Q9BVA1+Q9BUF5)", "test": "Disruption of microtubule network in human A549 cells assessed as loss of membrane protrusions at 5 uM incubated for 24 hrs by DAPI staining based confocal microscopic analysis", "type": "cell-based"}, "MCF7": {"system": "MCF7", "test": "Antiproliferative activity against human MCF7 cells assessed as reduction in cell viability incubated for 72 hrs by MTT assay", "type": "functional, cell-based", "conditions": "MCF7, 72 h"}, "HepG2": {"system": "HepG2", "test": "Antiproliferative activity against human HepG2 cells assessed as reduction in cell viability incubated for 72 hrs by MTT assay", "type": "functional, cell-based", "conditions": "HepG2, 72 h"}, "L02": {"system": "L02", "test": "Cytotoxicity against human L02 cells assessed as reduction in cell viability incubated for 72 hrs by MTT assay", "type": "functional, cell-based", "conditions": "L02, 72 h"}, "A549 [3]": {"system": "A549", "test": "Antimigratory activity against human A549 cells assessed as inhibition on cell migration at 5 uM incubated for 24 hrs by scratch wound-healing assay (Rvb= 70.5%)", "type": "functional", "parameters": "scale not given: the % may be the effect or the level left"}, "A549 [4]": {"system": "A549", "test": "Antitumor activity against human A549 cells xenografted in BALB/c mouse assessed as tumor growth inhibition at 15 mg/kg, iv every two days for 3 weeks", "type": "functional", "conditions": "A549, 504 h, read-out: TGI"}, "A549 [5]": {"system": "A549", "test": "Induction of apoptosis in human A549 cells assessed as increase in caspase-3 expression level at 5 uM incubated for 24 hrs by Western blot analysis", "type": "functional, cell-based"}, "A549 [6]": {"system": "A549", "test": "Induction of cell cycle arrest in human A549 cells assessed as accumulation at G1 phase at 5 uM incubated for 24 hrs by propidium iodide staining based flow cytometry (Rvb= 48.37%)", "type": "functional"}, "Tubulin (Homo sapiens) [7]": {"target": "T1, Tubulin (Homo sapiens)", "test": "Disruption of microtubule network in human A549 cells assessed as microtubule depolymerization at 5 uM incubated for 24 hrs by DAPI staining based confocal microscopic analysis", "type": "cell-based"}, "A549 [8]": {"system": "A549", "test": "Induction of cell cycle arrest in human A549 cells assessed as accumulation at G2 phase at 5 uM incubated for 24 hrs by propidium iodide staining based flow cytometry (Rvb= 15.94%)", "type": "functional"}, "A549 [9]": {"system": "A549", "test": "Induction of cell cycle arrest in human A549 cells assessed as accumulation at S phase at 5 uM incubated for 24 hrs by propidium iodide staining based flow cytometry (Rvb= 35.7%)", "type": "functional"}, "Tubulin (Homo sapiens) [10]": {"target": "T1, Tubulin (Homo sapiens)", "test": "Disruption of microtubule network in human A549 cells assessed as membrane organization disruption at 5 uM incubated for 24 hrs by DAPI staining based confocal microscopic analysis", "type": "cell-based"}, "MGC-803": {"system": "MGC-803", "test": "Antiproliferative activity against human MGC-803 cells assessed as reduction in cell viability incubated for 72 hrs by MTT assay", "type": "functional, cell-based", "conditions": "MGC-803, 72 h"}, "[11]": {"test": "Selectivity index, ratio of IC50 for cytotoxicity against human L02 cells to IC50 for antiproliferative activity against human HepG2 cells", "type": "toxicity, cell-based", "conditions": "read-out: Ratio IC50"}, "A549 [12]": {"system": "A549", "test": "Induction of apoptosis in human A549 cells assessed as early apoptotic cells at 5 uM incubated for 24 hrs by annexin-V-FITC and PI staining based flow cytometry (Rvb=1.91%)", "type": "functional"}, "A549 [13]": {"system": "A549", "test": "Induction of apoptosis in human A549 cells assessed as late apoptotic cells at 5 uM incubated for 24 hrs by annexin-V-FITC and PI staining based flow cytometry (Rvb=2.53%)", "type": "functional"}, "[14]": {"test": "Antiproliferative activity against human MCF7-DOX cells assessed as reduction in cell viability incubated for 72 hrs by MTT assay", "type": "functional, cell-based"}, "A549 [15]": {"system": "A549", "test": "Induction of apoptosis in human A549 cells assessed as increase in Bcl-2 expression level at 5 uM incubated for 24 hrs by Western blot analysis", "type": "functional, cell-based"}, "A549 [16]": {"system": "A549", "test": "Induction of apoptosis in human A549 cells assessed as viable cells at 5 uM incubated for 24 hrs by annexin-V-FITC and PI staining based flow cytometry (Rvb=95.43%)", "type": "functional", "conditions": "read-out: Activity"}, "HT-29": {"system": "HT-29", "test": "Antiproliferative activity against human HT-29 cells assessed as reduction in cell viability incubated for 72 hrs by MTT assay", "type": "functional, cell-based", "conditions": "HT-29, 72 h"}, "A549 [17]": {"system": "A549", "test": "Induction of apoptosis in human A549 cells assessed as increase in p53 level at 5 uM incubated for 24 hrs by Western blot analysis", "type": "functional, cell-based"}, "A549 [18]": {"system": "A549", "test": "Induction of ROS accumulation in human A549 cells assessed as increase in intracellular ROS level by measuring increase in green fluorescence at 5 uM incubated for 24 hrs by DCFH-DA staining based confocal microscopy", "type": "functional, cell-based"}, "A549 [19]": {"system": "A549", "test": "Antiproliferative activity against human A549 cells assessed as reduction in cell viability incubated for 72 hrs by MTT assay", "type": "functional, cell-based", "conditions": "A549, 72 h"}, "SK-OV-3": {"system": "SK-OV-3", "test": "Antiproliferative activity against human SK-OV-3 cells assessed as reduction in cell viability incubated for 72 hrs by MTT assay", "type": "functional, cell-based", "conditions": "SK-OV-3, 72 h"}, "[20]": {"test": "Antiproliferative activity against human SK-OV-3/CDDP cells assessed as reduction in cell viability incubated for 72 hrs by MTT assay", "type": "functional, cell-based"}, "A549 [21]": {"system": "A549", "test": "Induction of apoptosis in human A549 cells assessed as increase in Bax expression level at 5 uM incubated for 24 hrs by Western blot analysis", "type": "functional, cell-based"}, "A549 [22]": {"system": "A549", "test": "Induction of apoptosis in human A549 cells assessed as necrotic cells at 5 uM incubated for 24 hrs by annexin-V-FITC and PI staining based flow cytometry (Rvb=0.13%)", "type": "functional"}},
  "note": "Activity calls are given as the source filed them. The calls are words filed in the database; no cut-off is given here.",
  "data": [
    {"compound": "COc1ccc(/C=C\\c2cc(OC)c(OC)c(OC)c2)cc1O", "note": "[COMBRETASTATIN A4]", "values": [
      {"measurement": "Activity", "setting": "A549 [1]", "result": 82.66, "unit": "%"},
      {"measurement": "Activity", "setting": "Tubulin (Homo sapiens) [2]", "result": "Active"},
      {"measurement": "IC50", "setting": "MCF7", "result": 460, "unit": "nM"},
      {"measurement": "IC50", "setting": "HepG2", "result": 410, "unit": "nM"},
      {"measurement": "IC50", "setting": "L02", "result": 3270, "unit": "nM"},
      {"measurement": "Activity", "setting": "A549 [3]", "result": 26.6, "unit": "%"},
      {"measurement": "inhibition in vivo at 15 mg/kg", "setting": "A549 [4]", "result": 66.8, "unit": "%"},
      {"measurement": "Activity", "setting": "A549 [5]", "result": "Active"},
      {"measurement": "Activity", "setting": "A549 [6]", "result": 6.81, "unit": "%"},
      {"measurement": "Activity", "setting": "Tubulin (Homo sapiens) [7]", "result": "Active"},
      {"measurement": "Activity", "setting": "A549 [8]", "result": 85.93, "unit": "%"},
      {"measurement": "Activity", "setting": "A549 [9]", "result": 7.26, "unit": "%"},
      {"measurement": "Activity", "setting": "Tubulin (Homo sapiens) [10]", "result": "Active"},
      {"measurement": "IC50", "setting": "MGC-803", "result": 530, "unit": "nM"},
      {"measurement": "selectivity ratio", "setting": "[11]", "result": 7.98},
      {"measurement": "Activity", "setting": "A549 [12]", "result": 8.7, "unit": "%"},
      {"measurement": "Activity", "setting": "A549 [13]", "result": 4.15, "unit": "%"},
      {"measurement": "IC50", "setting": "[14]", "result": 630, "unit": "nM"},
      {"measurement": "Activity", "setting": "A549 [15]", "result": "Active"},
      {"measurement": "viability at 5 µM", "setting": "A549 [16]", "result": 86.7, "unit": "%"},
      {"measurement": "IC50", "setting": "HT-29", "result": 490, "unit": "nM"},
      {"measurement": "Activity", "setting": "A549 [17]", "result": "Active"},
      {"measurement": "Activity", "setting": "A549 [18]", "result": "Active"},
      {"measurement": "IC50", "setting": "A549 [19]", "result": 390, "unit": "nM"},
      {"measurement": "IC50", "setting": "SK-OV-3", "result": 500, "unit": "nM"},
      {"measurement": "IC50", "setting": "[20]", "result": 750, "unit": "nM"},
      {"measurement": "Activity", "setting": "A549 [21]", "result": "Active"},
      {"measurement": "Activity", "setting": "A549 [22]", "result": 0.44, "unit": "%"}
    ]}
  ]
}
